Experimental data as given in patent US20220296669A1, “NOVEL COMPOSITIONS AND USES THEREOF” (priority 2019, published 2022).

How the values were obtained:
[1] = system: collagen I scaffolds; experiment: 131-iodine coating efficiency (binding) assay on collagen I scaffolds with/without PLL precoating; details: with PLL as intermediate layer vs without PLL / controls, 1 mm thin and 2 mm thick scaffolds
Description: Materials—MDS Collagen was obtained from MedSkin Solutions Dr. Suwelack A G (MDS). 1 mm thickness refers to thin, and 2 mm thickness refers to thick collagen scaffold, respectively. c-poly-L-lysine hydrobromide (PLL, 30 000-150 000 g/mol) was purchased from Sigma-Aldrich, St. Louis, USA. Collagen VI and its derived peptides were prepared as described in [18]. LL-37 was a kind gift of Dr. Artur Schmidtchen, University of Lund. NAT26, HKH20, GGL27 were kind gifts of Dr. Inga-Maria Frick, University of Lund. α defensins 3-6 and β defensins 1-4 were kind gifts of Dr. Arne Egesten, University of Lund. Proteins were radiolabeled with 131-iodine according to standard protocols prior to coating assays on collagen scaffold surfaces.
Biomaterial surface coating with PLL—collagen scaffold discs with a diameter of 5 mm and thickness of 2 mm (thick scaffold) and 1 mm (thin scaffold), respectively, were punched out from a larger sheet (approximately 10 cm×10 cm). Prior to collagen coating, 150 μl poly-L-lysine hydrobromide solution (0.2 mg/ml) were applied on the collagen scaffold discs by incubation at 60° C. for 2 h. Afterwards the discs were washed twice in distilled water to remove unbound PLL, air-dried and stored at room temperature.
(§1) Biomaterial surface coating with bioactive collagen VI molecules—collagen scaffold discs, after prior treatment with PLL, were put into 24-well cell culture plates (TPP, Trasadingen, Switzerland). They were coated by incubation with 150 μl bovine collagen VI microfibrils (concentration 15 μM), or with 150 μl collagen type VI peptides (concentration 3 μM), or with 150 ml LL-37, NAT26, HKH20, GGL27, α defensins 3-6 and β defensins 1-4 at 4° C. for 2 h, followed by rinsing with distilled water and air-drying. The coating efficiencies of the different biomolecules were assessed by determining the ratio between bound and free 131-iodine radioactivity associated with collagen scaffolds by determining radioactivity as cpm values in a γ-counter.

[2] = 131-iodine coating efficiency (binding) assay on titanium surfaces with/without PLL precoating; details: with PLL as intermediate layer vs without PLL / controls
Description: Materials—Titanium discs with a diameter and thickness of 5 mm and 0.25 mm, respectively, and with a maximum average roughness (Ra) of 0.8 μm, were punched out from a commercially available titanium foil (Alfa Aesar GmbH & Co. KG, Karlsruhe, Germany). ε-poly-L-lysine hydrobromide (PLL, 30,000-150,000 g/mol) was purchased from Sigma-Aldrich, St. Louis, USA. Collagen VI and its derived peptides were prepared as described in [18]. LL-37 was a kind gift of Dr. Artur Schmidtchen, University of Lund. NAT26, HKH20, GGL27 were kind gifts of Dr. Inga-Maria Frick, University of Lund. α defensins 3-6 and β defensins 1-4 were kind gifts of Dr. Arne Egesten, University of Lund. Proteins were radiolabeled with 131-iodine according to standard protocols prior to coating assays on collagen scaffold surfaces.
Biomaterial surface coating with PLL—Titanium discs were degreased with chloroform and 97% ethanol, followed by rinsing with distilled water, and air-drying at room temperature. Subsequently, prior to collagen coating, 150 μl poly-L-lysine hydrobromide (70,000-150,000 g/mol, Sigma-Aldrich, St. Louis, USA, 0.2 mg/ml) were applied on desired titanium discs by incubation at 60° C. for 2 hours. Afterwards, the titanium was washed twice in distilled water to remove unbound PLL, air-dried and stored at room temperature.
as §1, with “molecules—Titanium” for “molecules—collagen scaffold”, “μl” for “μl bovine collagen VI microfibrils (concentration 15 μM), or with 150 μl”, “μM),” for “μM), or with 150 ml LL-37, NAT26, HKH20, GGL27, α defensins 3-6 and β defensins 1-4”, “hours,” for “h,”, “titanium discs” for “collagen scaffolds”

[3] = system: Pseudomonas aeruginosa; experiment: Gram-negative bacterial killing efficiency on coated surfaces, scanning electron microscopy; assay type: cell-based; details: with PLL as intermediate layer vs without PLL and other parts of collagen VI; for killing of Pseudomonas aeruginosa on collagen I scaffolds: collagen I scaffolds 1 mm / 2 mm, FIG. 9; for killing of Pseudomonas aeruginosa on titanium surfaces: titanium surface, FIG. 5
Description: (§2) Collagen I scaffolds and titanium surfaces were coated with collagen VI microfibrils, each of collagen VI alpha 1-3 chains and the bioactive collagen VI peptides GVR28, FYL25, FFL25, VTT30, and SFV33 as described in Examples 1 and 2 above, respectively.
(§3) Killing efficiency of the gram-negative Pseudomonas aeruginosa bacteria and the gram-positive Staphylococcus aureus were assessed by scanning electron microscopy. For killing efficiency and scanning electron microscopy experiments, titanium scaffold discs with a size of 5 mm and a thickness of 0.25 mm, and collagen I scaffold discs with a size of 5 mm and a thickness of 1 mm (thin scaffold) or 2 mm (thick scaffold), respectively, were punched out and coated with PLL as described in Examples 1 and 2 above. They were subsequently incubated with 500 μL of bacterial suspension (5×10^8 cfu/ml bacteria) and incubated for 2 hours at 37° C. in a humid atmosphere containing 5% CO2.
(§4) The discs were then prepared for scanning electron microscopy. In short, samples were incubated overnight at 4° C. with fixation buffer (0.15M sodium cacodylate, pH 7.4, containing 2.5% v/v glutaraldehyde) and subsequently washed with cacodylate buffer (0.15M sodium cacodylate, pH 7.4), followed by a standard dehydration series with ethanol-water mixtures. Specimens were then dried in liquid CO2, using ethanol as an intermediate solvent. Samples were mounted on aluminium discs and coated with 20 nm gold/palladium. Finally, samples were investigated with an XL 30 FEG scanning electron microscope and images were processed by AnalySIS ITEM software. Viable and non-viable bacteria were directly identified and quantified under in the scanning electron microscope due to their structural differences.

[4] = system: Staphylococcus aureus; experiment: Gram-positive bacterial killing efficiency on coated surfaces, scanning electron microscopy; assay type: cell-based; details: with PLL as intermediate layer vs without PLL and other parts of collagen VI; for killing of Staphylococcus aureus on collagen I scaffolds: collagen I scaffolds 1 mm / 2 mm, FIG. 10; for killing of Staphylococcus aureus on titanium surfaces: titanium surface, FIG. 6
Description: as §2, §3, §4

[5] = system: Human Dermal Fibroblasts, adult (HDFa); experiment: Fibroblast adherence on coated surfaces, scanning electron microscopy; assay type: cell-based; details: with PLL as intermediate layer vs without PLL and other parts of collagen VI, measured in cells/mm^2; for fibroblast adherence on collagen I scaffolds: FIG. 11; for fibroblast adherence on titanium surfaces: titanium surface, FIG. 7
Description: (§5) Collagen I scaffolds and titanium surfaces were coated with collagen VI microfibrils, each of collagen VI alpha 1-3 chains and the bioactive collagen VI peptides GVR28, FYL25, FFL25, VTT30, and SFV33 as described in Examples 1 and 2 above.
(§6) Adherence of fibroblasts or keratinocytes was assessed by scanning electron microscopy.
(§7) Cells and culture conditions—Keratinocytes (Human Epidermal Keratinocytes, adult (HEKa), C-005-5C, Gibco) and fibroblasts (Human Dermal Fibroblasts, adult (HDFa), C0135C, Gibco) were purchased from Thermo Fisher Scientific, Waltham, USA. Cryopreserved cells were thawed according to the manufacturer's protocol and seeded on three 75 mL tissue culture flasks, each containing 15 mL of keratinocyte basal medium (KBM; KBM Gold, Lonza Group AG, Basel, Switzerland). The medium was supplemented with transferrin, recombinant human epidermal growth factor (rhEGF), bovine pituitary extract (BPE), antibiotics (Gentamycin: GA-1000), insulin, epinephrine and hydrocortisone (PeproTech, New Jersey, USA). For fibroblasts, complete growth medium consisting of Dulbecco's modified eagle medium (D-MEM) with 100 mM sodium pyruvate (PAA Laboratories, Pasching, Austria), supplemented with 10% fetal bovine serum (FBS) (PAA Laboratories, Pasching, Austria) and 2 mM L-glutamine (Invitrogen, Carlsbad, USA), was used. Medium was changed every day and substituted with additional rhEGF at a final dilution of 1:1000. The cells were incubated for seven days until they reached confluency. The cells were harvested by trypsinization (TrypLE™ Select (1x), Life Technologies Corporation, Carlsbad, USA) and transferred into freezing medium, containing 1% BSA (Sigma Aldrich, St. Louis, USA) and 10% DMSO (Sigma-Aldrich, St. Louis, USA). 1 mL aliquots of the cell suspension were transferred into cryotubes. The cryotubes were transferred to the freezer at −80° C. for 24 hours and then finally stored in liquid nitrogen until further use.
(§8) Cell attachment—Cells were gently thawed and counted in a hemocytometer using trypan blue (Fisher Scientific, Waltham, USA) to estimate the number of live/dead cells. They were finally diluted in appropriate media to final cell concentrations of 16700 viable cells/mL. 300 μL cell solution were added on top of punched out titanium or collagen I scaffold samples, followed by incubation at 37° C. for 1 hour. Growth medium was removed and the cells were gently washed twice with PBS. The cells were then fixed by the addition of 4% formaldehyde in PBS, followed by incubation at 4° C. for 20 minutes. Finally, cells were rinsed three times in PBS and stored in 3 mL PBS until further evaluation by scanning electron microscopy.

[6] = system: Human Epidermal Keratinocytes, adult (HEKa); experiment: Keratinocyte adherence on coated surfaces, scanning electron microscopy; assay type: cell-based; details: with PLL as intermediate layer vs without PLL and other parts of collagen VI; for keratinocyte adherence on collagen I scaffolds: FIG. 12; for keratinocyte adherence on titanium surfaces: titanium surface, FIG. 8
Description: as §5, §6, §7, §8

[7] = listed as collagen type VI alpha-3 chain

Row | Substance | coating efficiency (binding) on collagen I scaffolds [1] | coating efficiency (binding) on collagen I scaffolds [1, 7] | coating efficiency (binding) on titanium surfaces [2] | coating efficiency (binding) on titanium surfaces [2, 7] | killing of Pseudomonas aeruginosa on collagen I scaffolds [3] | killing of Pseudomonas aeruginosa on titanium surfaces [3] | killing of Staphylococcus aureus on collagen I scaffolds [4] | killing of Staphylococcus aureus on titanium surfaces [4] | fibroblast adherence on collagen I scaffolds [5] | fibroblast adherence on titanium surfaces [5] | keratinocyte adherence on collagen I scaffolds [6] | keratinocyte adherence on titanium surfaces [6]
1 | collagen VI alpha-3 chain: alpha-3 polypeptide chain of collagen type VI (UniProt P12111) | considerably enhanced | superior coating | considerably enhanced | superior coating | considerably enhanced | considerably enhanced | considerably enhanced | considerably enhanced | considerably enhanced | considerably enhanced | considerably enhanced | considerably enhanced
2 | FYLKTYRSQAPVLDAIRRLRLRGGS (FYL25 peptide) | superior coating | – | superior coating | – | – | – | – | – | – | – | – | –
3 | VTTEIRFADSKRKSVLLDKIKNLQVALTSK (VTT30 peptide) | superior coating | – | superior coating | – | – | – | – | – | considerably enhanced | considerably enhanced | considerably enhanced | considerably enhanced
4 | GVRPDGFAHIRDFVSRIVRRLNIGPSKV (GVR28 peptide) | superior coating | – | superior coating | – | – | – | – | – | considerably enhanced | considerably enhanced | considerably enhanced | considerably enhanced
5 | SFVARNTFKRVRNGFLMRKVAVFFSNTPTRASP (SFV33 peptide) | superior coating | – | superior coating | – | considerably enhanced | considerably enhanced | considerably enhanced | considerably enhanced | – | – | – | –
6 | FFLKDFSTKRQIIDAINKVVYKGGR (FFL25 peptide) | superior coating | – | superior coating | – | – | – | – | – | considerably enhanced | considerably enhanced | considerably enhanced | considerably enhanced
